Results: patent US5086071A, “2,5,6,7-tetranor-4,8-inter-m-phenylene PGI2 derivatives” (Toray Industries, Inc., priority 1989, dated 1992)
≈ marks a conversion by molar mass, not a printed value.

What was measured:
platelet aggregation = test: Inhibiting Effect of Platelet Aggregation (ADP-induced, human platelet rich plasma); format: cell-based; conditions: human PRP, ADP 10 μM, test compound added one minute prior to ADP, read-out: ED50 (text: IC50), inhibition of platelet aggregation
Protocol: Blood collected from human intermediate cubital vein was centrifuged at 800 rpm for 10 minutes. The supernatant was taken out as platelet rich plasma (PRP). Aliquots of PRP were dispensed into test tubes to which […] (ADP) was added (final concentration: 10 μM) to induce platelet aggregation. The extent of platelet aggregation is determined by an aggregometer (Rika Denki, Tokyo) as a change of turbidity. The test compound is added in one minute prior to the addition pf ADP. IC50 values are calculated as a concentration of test compound which inhibits platelet aggregation by 50%.

stomach = test: Gastric Cytoprotection (0.2N NaOH-induced stomach lesion, ulcer index); format: in vivo; conditions: test compound 30 minutes before oral 0.2N NaOH; killed one hour later; read-out: ED50 (dose which reduces an ulcer index by 50% of that in a control animal)
Protocol: Gastric cytoprotection was measured according to the method of A. Robert, et al. (Gastroenterlogy 77 (3), 443 (1979).
Thirty minutes later after the test compound was administered, the animals were given orally 0.2N NaOH and killed one hour later by chloroform anesthesia.
The stomach was taken out, fixed with 5% formalin solution, and opened along greater curvature.
The length of the lesion brought about in the stomach is measured and expressed in terms of the ulcer index. Gastric cytoprotection activity is expressed in Table 1 below as an ED50 value (dose in μg/Kg which reduces an ulcer index by 50% of that in a control animal (ulcer index: 100%)).

gastric acid secretion = test: Gastric Acid Secretion Inhibition (pentagastrin-stimulated, perfused stomach); format: in vivo, rat (male SD rats); conditions: intravenous; pentagastrin 0.05 μg/Kg/min; relative to PGE2 set as 1
Protocol: Male SD rats were operated by means of ventrotomy under urethane anesthesia. A double cannula was inserted into the fundus of the rat. The stomach lumen was continuously perfused with a physiological saline solution. The perfusate was drawn into the pH meter to continuously measure its pH (M. Ghosh, H. Schild, Br. J. Pharmacol. 13, 54 (1958)).
Pentagastrin was infused continuously at a rate of 0.05 μg/Kg/min. to stimulate gastric acid secretion.
The test compounds were injected intravenuously into the femoral vein when the pH reached a steady state at about 4.0.
Gastric acid secretion inhibition activity is calculated from the area made by pH augmentation against time.
The potency of the compounds is compared and expressed in terms of PGE2 ratio where PGE2 is set as 1.

[1] = cited from earlier work
[2] = neutral aqueous solution; cited from earlier work

Compound	IC50 (platelet aggregation)	ED50 (stomach)	Gastric Antisecretory Activity, Relative Potency Ratio [PGE2 = 1.0] (gastric acid secretion)	duration of physiological activities in vivo [1]	metabolism in vivo [1]	stability [2]
CC(C)(c1ccccc1)[C@H](O)/C=C/[C@@H]1[C@H]2c3cccc(/C=C/C(=O)O)c3O[C@H]2C[C@H]1O [Compound 51, d-(3E)-16-methyl-16-phenyl-2,5,6,7,18,19,20-heptanor-3,4-didehydro-4,8-inter-m-phenylene PGI2]	1800 ng/mL (≈ 4280 nM)					
C[C@@H](Oc1ccccc1)[C@H](O)/C=C/[C@@H]1[C@H]2c3cccc(/C=C/C(=O)O)c3O[C@H]2C[C@H]1O [Compound 77, d-(3E,16R)-16-phenoxy-2,5,6,7,18,19,20-heptanor-3,4-didehydro-4,8-inter-m-phenylene PGI2]	14 ng/mL (≈ 33.1 nM)	0.4 µg/kg	83			
CCCCC[C@H](O)/C=C/[C@@H]1[C@H]2C/C(=C/CCCC(=O)O)O[C@H]2C[C@H]1O [PGI2, Prostaglandin I2]				only short duration of physiological activities in vivo	metabolized quickly in vivo	extremely unstable even in neutral aqueous solution
CC(C)(Oc1ccccc1)[C@H](O)/C=C/[C@@H]1[C@H]2c3cccc(/C=C/C(=O)O)c3O[C@H]2C[C@H]1O [Compound 79, d-(3E)-16-methyl-16-phenoxy-2,5,6,7,18,19,20-heptanor-3,4-didehydro-4,8-inter-m-phenylene PGI2]		0.5 µg/kg	112			
O=C(O)/C=C/c1cccc2c1O[C@H]1C[C@@H](O)[C@H](/C=C/[C@@H](O)C3CCCC3)[C@@H]21 [Compound 57, d-(3E)-15-cyclopentyl-2,5,6,7,16,17,18,19,20-nonanor-3,4-didehydro-4,8-inter-m-phenylene PGI2]		5.07 µg/kg				
CCCC[C@H](C)C[C@H](O)/C=C/[C@@H]1[C@H]2c3cccc(/C=C/C(=O)O)c3O[C@H]2C[C@H]1O [Compound 31, d-(3E, 17S)-17-methyl-20a-homo-2,5,6,7-tetranor-3,4-didehydro-4,8-inter-m-phenylene PGI2]	0.14 ng/mL (≈ 0.35 nM)					
O=C(O)/C=C/c1cccc2c1O[C@H]1C[C@@H](O)[C@H](/C=C/[C@@H](O)c3cccc(F)c3)[C@@H]21 [Compound 43, d-(3E)-15-(m-fluorophenyl)-2,5,6,7,16,17,18,19,20-nonanor-3,4-didehydro-4,8-inter-m-phenylene PGI2]		0.39 µg/kg				
O=C(O)/C=C/c1cccc2c1O[C@H]1C[C@@H](O)[C@H](/C=C/[C@@H](O)c3ccc(Cl)cc3)[C@@H]21 [Compound 40, d-(3E)-15-(p-chlorophenyl)-2,5,6,7,16,17,18,19,20-nonanor-3,4-didehydro-4,8-inter-m-phenylene PGI2]		0.46 µg/kg				
O=C(O)/C=C/c1cccc2c1O[C@H]1C[C@@H](O)[C@H](/C=C/[C@@H](O)COc3ccccc3)[C@@H]21 [Compound 75, d-(3E)-16-phenoxy-2,5,6,7,17,18,19,20-octanor-3,4-didehydro-4,8-inter-m-phenylene PGI2]	29 ng/mL (≈ 71 nM)	0.89 µg/kg	73			

More lines, main results first:

IC50 (platelet aggregation)	Compound	ED50 (stomach)	Gastric Antisecretory Activity, Relative Potency Ratio [PGE2 = 1.0] (gastric acid secretion)	duration of physiological activities in vivo [1]	metabolism in vivo [1]	stability [2]
0.4 ng/mL (≈ 1.07 nM)	CCCCC[C@H](O)/C=C/[C@@H]1[C@H]2c3cccc(/C=C/C(=O)O)c3O[C@H]2C[C@H]1O [Compound 24, d-(3E)-2,5,6,7-tetranor-3,4-didehydro-4,8-inter-m-phenylene PGI2]	21.4 µg/kg	23			
100 ng/mL (≈ 248 nM)	CCOCC(C)(C)[C@H](O)/C=C/[C@@H]1[C@H]2c3cccc(/C=C/C(=O)O)c3O[C@H]2C[C@H]1O [Compound 72, d-(3E)-16,16-dimethyl-2,5,6,7-tetranor-18-oxa-3,4-didehydro-4,8-inter-m-phenylene PGI2]	2.7 µg/kg	9			
0.56 ng/mL (≈ 1.48 nM)	O=C(O)/C=C/c1cccc2c1O[C@H]1C[C@@H](O)[C@H](/C=C/[C@@H](O)c3ccccc3)[C@@H]21 [Compound 37, d-(3E)-15-phenyl-2,5,6,7,16,17,18,19,20-nonanor-3,4-didehydro-4,8-inter-m-phenylene PGI2]	0.83 µg/kg	83			
0.58 ng/mL (≈ 1.55 nM)	CCCOC[C@H](O)/C=C/[C@@H]1[C@H]2c3cccc(/C=C/C(=O)O)c3O[C@H]2C[C@H]1O [Compound 69, d-(3E)-2,5,6,7-tetranor-17-oxa-3,4-didehydro-4,8-inter-m-phenylene PGI2]	6.5 µg/kg	10			
1.6 ng/mL (≈ 4.14 nM)	CCCCC(C)[C@H](O)/C=C/[C@@H]1[C@H]2c3cccc(/C=C/C(=O)O)c3O[C@H]2C[C@H]1O (stereo partly drawn) [Compound 28, d-(3E)-16-methyl-2,5,6,7-tetranor-3,4-didehydro-4,8-inter-m-phenylene PGI2]	0.26 µg/kg	55			
45 ng/mL (≈ 112 nM)	CCCCC(C)(C)[C@H](O)/C=C/[C@@H]1[C@H]2c3cccc(/C=C/C(=O)O)c3O[C@H]2C[C@H]1O [Compound 34, d-(3E)-16,16-dimethyl-2,5,6,7-tetranor-3,4-didehydro-4,8-inter-m-phenylene PGI2]	1.6 µg/kg	36			
0.35 ng/mL (≈ 0.91 nM)	O=C(O)/C=C/c1cccc2c1O[C@H]1C[C@@H](O)[C@H](/C=C/[C@@H](O)C3CCCCC3)[C@@H]21 [Compound 60, d-(3E)-15-cyclohexyl-2,5,6,7,16,17,18,19,20-nonanor-3,4-didehydro-4,8-inter-m-phenylene PGI2]	0.88 µg/kg	14			
